Patent US10568819B2, “Skin enhancing compositions and methods” (Sytheon Limited, priority 2016, dated 2020)

Tests used:
Collagen type 1 = experiment: Collagen 1 boosting in human dermal fibroblasts; type: cell-based; details: HDF, incubation time of 6 days
Procedure: (§1) In this study, an investigation was performed in relation to the ability, if any, of the aryl alkanones to boost the production of Collagens 1, 3 and 4 proteins. […] In this study, the cells used were human dermal fibroblasts (HDF), passage 12 (Cell Applications, San Diego, Calif.) which underwent an incubation time of 6 days.

COL4A1 = experiment: DNA microarray gene expression, COL4A1; type: cell-based
Excerpt: (§2) In light of the efficacy of the aryl alkanones ire addressing many of the molecular/biomolecular processes damaged by UV exposure, a study was undertaken to assess whether these compounds would also be effective in addressing symptoms associated with non-UV induced skin aging including chronological aging as well as disease conditions that likewise adversely affect skin processes. The studies conducted involves DNA microarray, PCR array, cell culture, enzyme inhibitory activity.

VCAN = experiment: DNA microarray gene expression, VCAN; type: cell-based
Excerpt: as §2

Collagen type 4 = experiment: Collagen 4 boosting in human dermal fibroblasts; type: cell-based; details: HDF, incubation time of 6 days
Procedure: as §1

COL14A1 [1] = experiment: DNA microarray gene expression, COL14A1; type: cell-based
Excerpt: as §2

COL11A1 = experiment: PCR array gene expression, COL11A1; type: cell-based
Excerpt: as §2

ITGB3 = experiment: PCR array gene expression, ITGB3; type: cell-based
Excerpt: as §2

COL14A1 [2] = experiment: PCR array gene expression, COL14A1; type: cell-based
Excerpt: as §2

Cell # = experiment: Cell number (Sulforhodamine B assay) after UVA irradiation; type: cell-based; details: 3 hours after irradiation
Procedure: (§3) The study was conducted in accordance with the protocols of Berridge et al, (M V Berridge & A S Tan, Characterization of the cellular reduction of 3-(4,5-dimethylthiazol-2-yl)-2,5-diphenyltetrazolium bromide (MTT): subcellular localization, substrate dependence, and involvement of mitochondrial electron transport in MTT reduction, Arch. Biochem. Biophys. 303:474-482, 1993) and Voigt (W Voigt, Sulforhodamine B assay and chemosensitivity, Methods Mol Med, 110:39-48, 2005). Cellular metabolism is determined using the MTT assay to measure the activity of mitochondrial dehydrogenases, such as succinate dehydrogenase, which are implicated in the respiratory electron transport chain in mitochondria [M V Berridge & Tan Biochem Biophys, 303:474-482, 1993]. Additionally, the samples were subject to the Mitochondrial ToxGlo Assay (Promega Technical Manual, G8000 and G8001), which is a cell-based assay method that has been developed to quantify potential mitochondrial dysfunction as a result of xenobiotic exposure, using a sequential-addition, multiplexed chemistry.
(§4) Table 8 presents the result on the effect of UVA radiation on cell metabolism 3 hours after irradiation. As indicated, Compound 1 improves cell metabolism, even at a very low use concentration. Table 9 presents the effect of 24 hour pre-incubation on UVA-induced mitochondrial damage measured by ATP production in human dermal fibroblasts. […] Finally. Table 10 presents the effect of 24 hour pre-incubation on UVA-induced plasma membrane disruption in human dermal fibroblasts. As indicated, Compound 1 almost completely reversed plasma membrane disruption, again at a very low use concentration.

Fibroblasts [3] = experiment: UVA- and UVB-induced formation of immediate CPDs (iCPDs) in fibroblasts; type: cell-based; details: UVA, 25 μg/ml
Procedure: Given the significance of CPDs in skin aging and damage, a study was undertaken to determine whether compounds of the present invention have the ability to directly protect the genome of skin cells from the mutagenic effect of UV light as evidenced by CPDs inhibition. The study was conducted in accordance with the method described by Mitchell et. al. [Mitchell, D L, The relative cytotoxicity of (6-4) photoproducts and cyclobutane dimers in mammalian cells. Photochem Photobiol, 48(1):51-57, 1988)] pursuant to which UVA- and UVB-induced formation of immediate CPDs (iCPDs) were determined.

ITGA4 = experiment: DNA microarray gene expression, ITGA4; type: cell-based
Excerpt: as §2

MSH6 = experiment: DNA microarray gene expression, MSH6; type: cell-based
Excerpt: as §2

Fibroblasts [4] = experiment: UVA-induced delayed formation of CPDs (dCPDs) in fibroblasts; type: cell-based; details: 25 μg/ml, product incubated for 24 hrs. plus UVA irradiation
Procedure: (§5) A second study was carried out, similar to the first, except that this time the analysis was in assessing the efficacy, if any, of the presently taught aryl alkanones in reducing UVA-induced delayed formation of CPDs (dCPDs).

iNOS = iNOS (Homo sapiens, UniProt P35228); experiment: Reduction of iNOS activity; type: biochemical
Sequence of iNOS (P35228 whole entry, species assumed): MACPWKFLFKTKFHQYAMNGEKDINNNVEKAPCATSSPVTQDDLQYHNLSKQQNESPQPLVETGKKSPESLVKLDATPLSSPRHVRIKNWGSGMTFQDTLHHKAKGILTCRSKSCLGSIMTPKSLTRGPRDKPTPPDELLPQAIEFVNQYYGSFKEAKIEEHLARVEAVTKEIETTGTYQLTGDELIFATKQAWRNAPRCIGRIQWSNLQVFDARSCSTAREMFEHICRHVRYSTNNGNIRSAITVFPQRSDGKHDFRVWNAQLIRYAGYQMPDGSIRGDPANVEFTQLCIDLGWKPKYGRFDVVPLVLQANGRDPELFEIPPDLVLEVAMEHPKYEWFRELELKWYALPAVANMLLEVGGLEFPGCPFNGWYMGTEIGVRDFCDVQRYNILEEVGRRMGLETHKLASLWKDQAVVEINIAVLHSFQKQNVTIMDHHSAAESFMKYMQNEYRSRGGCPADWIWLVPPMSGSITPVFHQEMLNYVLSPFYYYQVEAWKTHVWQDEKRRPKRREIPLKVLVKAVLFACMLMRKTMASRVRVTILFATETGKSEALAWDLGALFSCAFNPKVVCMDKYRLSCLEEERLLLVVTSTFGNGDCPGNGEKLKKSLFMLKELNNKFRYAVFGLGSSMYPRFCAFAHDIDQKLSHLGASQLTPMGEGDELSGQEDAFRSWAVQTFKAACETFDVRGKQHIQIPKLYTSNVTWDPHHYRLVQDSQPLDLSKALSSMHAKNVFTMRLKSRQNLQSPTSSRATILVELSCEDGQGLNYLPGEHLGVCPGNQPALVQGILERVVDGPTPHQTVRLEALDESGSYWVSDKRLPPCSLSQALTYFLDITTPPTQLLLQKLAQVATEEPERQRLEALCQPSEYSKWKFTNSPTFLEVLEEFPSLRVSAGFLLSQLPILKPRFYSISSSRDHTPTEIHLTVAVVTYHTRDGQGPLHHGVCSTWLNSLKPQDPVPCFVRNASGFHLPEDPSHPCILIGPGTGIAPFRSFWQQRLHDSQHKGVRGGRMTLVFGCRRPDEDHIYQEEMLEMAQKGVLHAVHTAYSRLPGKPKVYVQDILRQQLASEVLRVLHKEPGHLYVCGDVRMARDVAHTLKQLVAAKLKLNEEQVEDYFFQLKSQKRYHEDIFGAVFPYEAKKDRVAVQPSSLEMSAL
Excerpt: Accordingly, an investigation was undertaken to assess the efficacy of compounds according to the present teaching as compared to compounds that are closely structurally related thereto in inhibiting NO product.

Melanocytes = experiment: UVA-induced delayed formation of CPDs (dCPDs) in melanocytes; type: cell-based; details: 25 μg/ml, UVA irradiation first then product added
Procedure: as §5

FBLN1 = experiment: DNA microarray gene expression, FBLN1; type: cell-based
Excerpt: as §2

MMP3 = experiment: PCR array gene expression, MMP3; type: cell-based
Excerpt: as §2

TIMP4 = experiment: DNA microarray gene expression, TIMP4; type: cell-based
Excerpt: as §2

ITGA2 = experiment: PCR array gene expression, ITGA2; type: cell-based
Excerpt: as §2

[5] = system: mitochondrial dehydrogenases; experiment: MTT assay of cellular metabolism after UVA irradiation; type: cell-based; details: 3 hours after irradiation
Procedure: as §3, §4

COL6A1 = experiment: PCR array gene expression, COL6A1; type: cell-based
Excerpt: as §2

## COc1cc(CC(C(C)=O)C(C)=O)ccc1O [Compound 1, Acetyl Zingerone]
Collagen type 1; 50 μg/ml
  % Collagen 1 Bosting: 118%
Collagen type 1; 100 μg/ml
  % Collagen 1 Bosting: 173%
COL4A1
  Microarray, COL4A1 gene expression: +1.6
VCAN
  Microarray, VCAN gene expression: +1.7
Collagen type 4; 50 μg/ml
  % Collagen 4 Boosting: 145%
Collagen type 4; 100 μg/ml
  % Collagen 4 Boosting: 245%
COL14A1 [1]
  Microarray, COL14A1 gene expression: +4.3
COL11A1
  PCR array, COL11A1 gene expression: +1.9
ITGB3
  PCR array, ITGB3 gene expression: +2.0
COL14A1 [2]
  PCR array, COL14A1 gene expression: +2.1
Cell #; 0.5 μg/ml
  Cell # (% Control): 99 % Control
Cell #; 2 μg/ml
  Cell # (% Control): 101 % Control
Cell #; 5 μg/ml
  Cell # (% Control): 95 % Control
Fibroblasts [3]
  UVA/% Reduction in iCPDs vs. Control: 45%
ITGA4
  Microarray, ITGA4 gene expression: +1.6
MSH6
  Microarray, MSH6 gene expression: +2.1
Fibroblasts [4]; 0 hr.
  UVA/% Reduction in dCPDs vs. control, 0 hr. (Reduction in iCPDs): ^+0 hr.: ↓45%
Fibroblasts [4]; 1 hr.
  UVA/% Reduction in dCPDs vs. control, 1 hr.: 1 hr.: ↓20%
Fibroblasts [4]; 2 hr.
  UVA/% Reduction in dCPDs vs. control, 2 hr.: 2 hr.: ↓18%
iNOS
  IC50: 194 µM
Melanocytes; 1 hr.
  UVA/% Reduction in dCPDs vs. control, 1 hr.: 1 hr.: ↓70%
Melanocytes; 2 hr.
  UVA/% Reduction in dCPDs vs. control, 2 hr.: 2 hr.: ↓25%
Melanocytes; 4 hr.
  UVA/% Reduction in dCPDs vs. control, 4 hr.: 4 hr.: ~0%
FBLN1
  Microarray, FBLN1 gene expression: +1.9
MMP3
  PCR array, MMP3 gene expression: −2.5
TIMP4
  Microarray, TIMP4 gene expression: +1.6
ITGA2
  PCR array, ITGA2 gene expression: +1.6
[5]; 0.5 μg/ml
  Cell Metabolism Standardized to cell # (% Control): 123 % Control
  MTT (% Control): 122 % Control
[5]; 2 μg/ml
  Cell Metabolism Standardized to cell # (% Control): 136 % Control
  MTT (% Control): 137 % Control
[5]; 5 μg/ml
  Cell Metabolism Standardized to cell # (% Control): 174 % Control
  MTT (% Control): 164 % Control
COL6A1
  PCR array, COL6A1 gene expression: +1.5
